Results taken from patent publication US20260250290A1 (BRISTOL-MYERS SQUIBB COMPANY, priority 2023, published 2026).

target: T1, full length SGK1 (Homo sapiens, UniProt O00141); test: SGK1 inhibition Assay A (Caliper LabChip electrophoretic separation of fluorescent peptide substrate and phosphorylated product); type: biochemical; details: Assay A; 20 μM ATP, 40 min incubation; read-out: SGK1 IC50
T1 construct: 125 μM full length SGK1 (Life Technologies Part #PR7358A); purchased Life Technologies PR7358A
T1 sequence (O00141 1-431): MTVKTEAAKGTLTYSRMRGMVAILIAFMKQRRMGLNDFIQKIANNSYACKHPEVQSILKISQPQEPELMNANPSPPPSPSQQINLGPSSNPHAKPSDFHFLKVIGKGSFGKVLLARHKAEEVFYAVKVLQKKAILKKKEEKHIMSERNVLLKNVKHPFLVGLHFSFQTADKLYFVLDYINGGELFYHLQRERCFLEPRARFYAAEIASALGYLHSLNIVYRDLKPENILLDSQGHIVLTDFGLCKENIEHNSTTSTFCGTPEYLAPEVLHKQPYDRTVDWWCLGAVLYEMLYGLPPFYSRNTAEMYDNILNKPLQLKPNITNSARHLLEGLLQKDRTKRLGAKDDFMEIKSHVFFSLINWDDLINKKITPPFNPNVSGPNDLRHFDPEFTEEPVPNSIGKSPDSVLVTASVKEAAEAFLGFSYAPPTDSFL

SMILES | IC50
Nc1ncnn2c(-c3cncnc3)cc(N3CCC[C@@H](NC(=O)c4cc5ccccc5s4)C3)c12 [Example 646, (R)-N-(1-(4-amino-7-(pyrimidin-5-yl)pyrrolo[2,1-f][1,2,4]triazin-5-yl)piperidin-3-yl)benzo[b]thiophene-2-carboxamide] | 8 nM
N#Cc1ccc(-c2cc(N3CCC[C@@H](NC(=O)c4nc5ccccc5s4)C3)c3c(N)ncnn23)cn1 [Example 647, (R)-N-(1-(4-amino-7-(6-cyanopyridin-3-yl)pyrrolo[2,1-f][1,2,4]triazin-5-yl)piperidin-3-yl)benzo[d]thiazole-2-carboxamide] | 63 nM
N#Cc1ccc(-c2cc(N3CCC[C@@H](NC(=O)c4n[nH]c5ccccc45)C3)c3c(N)ncnn23)cn1 [Example 648, (R)-N-(1-(4-amino-7-(6-cyanopyridin-3-yl)pyrrolo[2,1-f][1,2,4]triazin-5-yl)piperidin-3-y1)-1H-indazole-3-carboxamide] | 104 nM
N#Cc1ccc(-c2cc(N3CCC[C@@H](NC(=O)c4cc5ccccc5o4)C3)c3c(N)ncnn23)cn1 [Example 649] | 6 nM
N#Cc1ccc(-c2cc(N3CCC[C@@H](NC(=O)c4nc5ccccc5o4)C3)c3c(N)ncnn23)cn1 [Example 650, (R)-N-(1-(4-amino-7-(6-cyanopyridin-3-yl)pyrrolo[2,1-f][1,2,4]triazin-5-yl)piperidin-3-yl)benzo[d]oxazole-2-carboxamide] | 54 nM
COC(=O)N1CC=C(c2cc(N3CCC[C@@H](NC(=O)c4sc5ccccc5c4OC4CCN(C(=O)OC(C)(C)C)CC4)C3)c3c(N)ncnn23)C1 [Example 651, ter-butyl (R)-4-((2-((1-(4-amino-7-(1-(methoxycarbonyl)-2,5-dihydro-1H-pyrrol-3-yl)pyrrolo[2,1-f][1,2,4]triazin-5-yl)piperidin-3-yl)carbamoyl)benzo[b]thiophen-3-yl)oxy)piperidine-1-carboxylate] | 100 nM
COC(=O)N1CC=C(c2cc(N3CCC[C@@H](NC(=O)c4sc5ccccc5c4OC4CCNCC4)C3)c3c(N)ncnn23)C1 [Example 652, methyl (R)-3-(4-amino-5-(3-(3-(piperidin-4-yloxy)benzo[b]thiophene-2-carboxamido)piperidin-1-yl)pyrrolo[2,1-f][1,2,4]triazin-7-yl)-2,5-dihydro-1H-pyrrole-1-carboxylate] | 10 nM
CC(=O)N1CC=C(c2cc(N3CCC[C@@H](NC(=O)c4sc5ccccc5c4OC4CCN(C(=O)OC(C)(C)C)CC4)C3)c3c(N)ncnn23)C1 [Example 653, tert-butyl (R)-4-((2-((1-(7-(1-acetyl-2,5-dihydro-1H-pyrrol-3-yl)-4-aminopyrrolo[2,1-f][1,2,4]triazin-5-yl)piperidin-3-yl)carbamoyl)benzo[b]thiophen-3-yl)oxy)piperidine-1-carboxylate] | 51 nM
CC(C)(C)OC(=O)N1CCC(Oc2c(C(=O)N[C@@H]3CCCN(c4cc(-c5ccc(C#N)nc5)n5ncnc(N)c45)C3)sc3ccccc23)CC1 [Example 654, tert-butyl (R)-4-((2-((1-(4-amino-7-(6-cyanopyridin-3-yl)pyrrolo[2,1-f][1,2,4]triazin-5-yl)piperidin-3-yl)carbamoyl)benzo[b]thiophen-3-yl)oxy)piperidine-1-carboxylate] | 57 nM
CC(=O)N1CC=C(c2cc(N3CCC[C@@H](NC(=O)c4sc5ccccc5c4OC4CCNCC4)C3)c3c(N)ncnn23)C1 [Example 655, (R)—N-(1-(7-(1-acetyl-2,5-dihydro-1H-pyrrol-3-yl)-4-aminopyrrolo[2,1-f][1,2,4]triazin-5-yl)piperidin-3-yl)-3-(piperidin-4-yloxy)benzo[b]thiophene-2-carboxamide] | 9 nM
N#Cc1ccc(-c2cc(N3CCC[C@@H](NC(=O)c4sc5ccccc5c4OC4CCNCC4)C3)c3c(N)ncnn23)cn1 [Example 656, (R)—N-(1-(4-amino-7-(6-cyanopyridin-3-yl)pyrrolo[2,1-f][1,2,4]triazin-5-yl)piperidin-3-yl)-3-(piperidin-4-yloxy)benzo[b]thiophene-2-carboxamide] | 3 nM
Nc1ncnn2c(-c3cncnc3)cc(N3CCC[C@@H](NC(=O)c4sc5ccccc5c4OC4CCNCC4)C3)c12 [Example 657, (R)—N-(1-(4-amino-7-(pyrimidin-5-yl)pyrrolo[2,1-f][1,2,4]triazin-5-yl)piperidin-3-yl)-3-(piperidin-4-yloxy)benzo[b]thiophene-2-carboxamide] | 51 nM
COC(=O)N1CC=C(c2cc(N3CCC[C@@H](NC(=O)c4sc5ccccc5c4OC4CCN(C)CC4)C3)c3c(N)ncnn23)C1 [Example 658, methyl (R)-3-(4-amino-5-(3-(3-((1-methylpiperidin-4-yl)oxy)benzo[b]thiophene-2-carboxamido)piperidin-1-yl)pyrrolo[2,1-f][1,2,4]triazin-7-yl)-2,5-dihydro-1H-pyrrole-1-carboxylate] | 18 nM
COC(=O)N1CC=C(c2cc(N3CCC[C@@H](NC(=O)c4sc5ccccc5c4OC4CCN(C(C)C)CC4)C3)c3c(N)ncnn23)C1 [Example 659, methyl (R)-3-(4-amino-5-(3-(3-((1-isopropylpiperidin-4-yl)oxy)benzo[b]thiophene-2-carboxamido)piperidin-1-yl)pyrrolo[2,1-f][1,2,4]triazin-7-yl)-2,5-dihydro-1H-pyrrole-1-carboxylate] | 7 nM
COC(=O)N1CC=C(c2cc(N3CCC[C@@H](NC(=O)c4sc5ccccc5c4OC4CCN(CCO)CC4)C3)c3c(N)ncnn23)C1 [Example 660, methyl (R)-3-(4-amino-5-(3-(3-((1-(2-hydroxyethyl)piperidin-4-yl)oxy)benzo[b]thiophene-2-carboxamido)piperidin-1-yl)pyrrolo[2,1-f][1,2,4]triazin-7-yl)-2,5-dihydro-1H-pyrrole-1-carboxylate] | 2 nM
COC(=O)N1CC=C(c2cc(N3CCC[C@@H](NC(=O)c4sc5ccccc5c4OCCN(C)C)C3)c3c(N)ncnn23)C1 [Example 661, Methyl (R)-3-(4-amino-5-(3-(3-(2-(dimethylamino)ethoxy)benzo[b]thiophene-2-carboxamido)piperidin-1-yl)pyrrolo[2,1-f][1,2,4]triazin-7-yl)-2,5-dihydro-1H-pyrrole-1-carboxylate] | 13 nM
CC(=O)N1CC=C(c2cc(N3CCC[C@@H](NC(=O)c4sc5ccccc5c4OCCN(C)C)C3)c3c(N)ncnn23)C1 [Example 662, (R)-N-(1-(7-(1-acetyl-2,5-dihydro-1H-pyrrol-3-yl)-4-aminopyrrolo[2,1-f][1,2,4]triazin-5-yl)piperidin-3-yl)-3-(2-(dimethylamino)ethoxy)benzo[b]thiophene-2-carboxamide] | 16 nM
CN(C)CCOc1c(C(=O)N[C@@H]2CCCN(c3cc(-c4ccc(C(N)=O)nc4)n4ncnc(N)c34)C2)sc2ccccc12 [Example 664, (R)-5-(4-amino-5-(3-(3-(2-(dimethylamino)ethoxy)benzo[b]thiophene-2-carboxamido)piperidin-1-yl)pyrrolo[2,1-f][1,2,4]triazin-7-yl)picolinamide] | 13 nM
CN(C)CCOc1c(C(=O)N[C@@H]2CCCN(c3cc(-c4ccc(C#N)nc4)n4ncnc(N)c34)C2)sc2ccncc12 [Example 666, (R)—N-(1-(4-amino-7-(6-cyanopyridin-3-yl)pyrrolo[2,1-f][1,2,4]triazin-5-yl)piperidin-3-yl)-3-(2-(dimethylamino)ethoxy)thieno[3,2-c]pyridine-2-carboxamide] | 11 nM
COC(=O)N1CC=C(c2cc(N3CCC[C@@H](NC(=O)c4sc5ccncc5c4OCCN(C)C)C3)c3c(N)ncnn23)C1 [Example 668, methyl (R)-3-(4-amino-5-(3-(3-(2-(dimethylamino)ethoxy)thieno [3,2-c]pyridine-2-carboxamido)piperidin-1-yl)pyrrolo[2,1-f] [1,2,4]triazin-7-yl)-2,5-dihydro-1H-pyrrole-1-carboxylate] | 21 nM
CC(=O)N1CC=C(c2cc(N3CCC[C@@H](NC(=O)c4sc5ccncc5c4OCCN(C)C)C3)c3c(N)ncnn23)C1 [Example 669, (R)-N-(1-(7-(1-acetyl-2,5-dihydro-1H-pyrrol-3-yl)-4-aminopyrrolo[2,1-f][1,2,4]triazin-5-yl)piperidin-3-yl)-3-(2-(dimethylamino)ethoxy)thieno [3,2-c]pyridine-2-carboxamide] | 22 nM
CN(C)CCOc1c(C(=O)N[C@@H]2CCCN(c3cc(-c4ccc(C(N)=O)nc4)n4ncnc(N)c34)C2)sc2ccncc12 [Example 670, (R)-N-(1-(4-amino-7-(6-carbamoylpyridin-3-yl)pyrrolo[2,1-f] [1,2,4]triazin-5-yl)piperidin-3-yl)-3-(2-(dimethylamino)ethoxy)thieno [3,2-c]pyridine-2-carboxamide] | 40 nM
COC(=O)N1CCC(c2cc(N3CCC[C@@H](NC(=O)c4sc5ccccc5c4OC4CN(C(=O)OC(C)(C)C)C4)C3)c3c(N)ncnn23)C1 (stereo partly drawn) [Example 671, methyl 3-(4-amino-5-((R)-3-(3-((1-(tert-butoxycarbonyl)azetidin-3-yl)oxy)benzo[b]thiophene-2-carboxamido)piperidin-1-yl)pyrrolo[2,1-f][1,2,4]triazin-7-yl)pyrrolidine-1-carboxylate] | 67 nM
CC(=O)N1CC=C(c2cc(N3CCC[C@@H](NC(=O)c4sc5ccccc5c4OC4CN(C(=O)OC(C)(C)C)C4)C3)c3c(N)ncnn23)C1 [Example 673, tert-butyl (R)-3-((2-((1-(7-(1-acetyl-2,5-dihydro-1H-pyrrol-3-yl)-4-aminopyrrolo [2,1-f][1,2,4]triazin-5-yl)piperidin-3-yl)carbamoyl)benzo[b]thiophen-3-yl)oxy)azetidine-1-carboxylate] | 96 nM
